50 compounds from patent US20080200535A1, “Amine Compounds” (Asahi Kasei Pharma Corporation, priority 2006, published 2008) can be followed below.

This assay has as its target T1, S1P1 receptor (Homo sapiens, UniProt P21453).
T1 construct: expressed in transfected cells; membrane preparation
Kind of assay: 35S-GTPγS binding assay using membrane preparation of CHO cell stably expressing S1P1 receptor. It counts as biochemical. The conditions noted are these: agonist activity. The procedure: ^35s-GTPγS binding assay using membrane preparation of CHO cell stably expressing S1P1 receptor
A G protein-GTPγS binding test associated with a ligand was performed by using a membrane preparation which was obtained from a CHO cell which stably overexpressed S1P1 receptor. In a 96 well-micro-titer dish, the produced membrane protein and a compound which was diluted with a solvent such as DMSO or sphingosine-1-phosphate in various concentrations was incubated in a solution containing 20 mM of Tris-Cl (pH7.5), 100 mM of NaCl, 10 mM of MgCl2, 5μM of GDP, 0.1% of BSA, and […] of ^35s-GTPγS (specific radioactivity, 1250 Ci mmol). The binding was performed for 1 or more hours at room temperature, and the membrane was harvested on a GF/B filter plate by using a Millipore's MultiScreen Separation System to end the binding. After the filter plate was dried for 30 or more minutes, 25 μL of MicroScint-20 was added to each well, and the binding was measured by using the TopCount.
For the agonist activity of compound, the value of a well which a solvent was added to was set to a control value and compared with an increment of an evaluation compound-added well, so that the increment of each concentration of the compound was obtained. EC50 value was calculated under the definition that the value is an agonist concentration required to provide 50% of the maximum increment thereof. […]

In general, EC50 refers to the concentration giving half of the maximal effect. Read a low EC50 as higher potency in that assay.

T1 sequence (P21453 whole entry): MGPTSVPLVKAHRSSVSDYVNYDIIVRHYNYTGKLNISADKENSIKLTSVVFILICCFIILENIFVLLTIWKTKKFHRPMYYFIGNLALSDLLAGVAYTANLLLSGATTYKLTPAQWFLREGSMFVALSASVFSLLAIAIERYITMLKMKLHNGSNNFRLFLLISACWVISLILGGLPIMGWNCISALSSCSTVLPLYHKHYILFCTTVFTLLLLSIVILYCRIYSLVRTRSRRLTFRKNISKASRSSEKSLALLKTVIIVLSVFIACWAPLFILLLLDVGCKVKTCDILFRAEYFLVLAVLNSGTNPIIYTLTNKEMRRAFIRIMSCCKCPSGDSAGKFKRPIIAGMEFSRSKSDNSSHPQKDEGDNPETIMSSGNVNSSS

With `O=C(O)C1CCC(NCc2ccc(OCc3cc(-c4ccccc4)c(C(F)(F)F)s3)cc2)CC1` (centres unmarked) [Example 9], the EC50 was determined as 161 nM.
The value for `O=C(O)[C@H]1CC[C@@H](NCc2ccc(OCc3cc(-c4ccccc4)c(C(F)(F)F)s3)cc2)CC1` [Example 13] was 234 nM.
The value for `O=C(O)[C@@H]1C[C@@H](O)[C@H](NCc2ccc(OCc3cc(-c4ccccc4)c(C(F)(F)F)s3)cc2)C1` [Example 15] was 121 nM; that for `O=C(O)[C@@H]1C[C@H](O)[C@H](NCc2ccc(OCc3cc(-c4ccccc4)c(C(F)(F)F)s3)cc2)C1` [Example 16] was 94 nM; that for `O=C(O)[C@H]1CC[C@@H](NCc2ccc(OCc3cc(-c4ccccc4)c(C(F)(F)F)s3)cc2)C1` [Example 18] was 251 nM.
The compound `O=C(O)[C@@H]1C[C@H](NCc2ccc(OCc3cc(-c4ccccc4)c(C(F)(F)F)s3)cc2)CN1` [Example 22] returned an EC50 of 268 nM.
`O=C(O)[C@@H]1CC=C[C@@H](NCc2ccc(OCc3cc(-c4ccccc4)c(C(F)(F)F)s3)cc2)C1` [Example 24]: the EC50 stood at 87 nM.
Compound `O=C(O)C(CO)NCc1ccc(OCc2cc(-c3ccccc3)c(C(F)(F)F)s2)cc1` (centres unmarked) [Example 27] gave an EC50 of 370 nM.
Under `O=C(O)[C@@H]1CC[C@H](NCc2ccc3cnn(Cc4ccc(-c5ccccc5)cc4)c3c2)C1` [Example 35, (1R,3s)-3-N-({1-(4-phenylbenzyl)-1H-indazol-6-yl)methyl}aminocyclopentane carboxylic acid] stands 160 nM; under `O=C(O)CCNCc1ccc(OCc2ccc3c(cnn3Cc3ccccc3)c2)cc1` [Example 37, 3-(4-(1-benzyl-1H-indazol-5-yl)methoxy)benzylaminopropanoic acid], 64 nM.
In turn, `O=C(O)CCNCc1ccc(-c2noc(-c3ccc(-c4ncccc4C(F)(F)F)cc3)n2)cc1` [Example 41] yielded a concentration giving a half-maximal response (EC50) of 25 nM.
Take `CC(C)/C=C/CCCCc1nc(-c2ccc(CNCCC(=O)O)cc2)no1` [Example 43]: the 50% effective concentration (EC50) worked out at 46 nM.
The value for `O=C(O)CCNCc1ccc(-c2noc(-c3cnc(OC4CCCC4)c(Cl)c3)n2)cc1` [Example 44] was 13 nM; that for `O=C(O)CCNCc1ccc(-c2noc(-c3ccc(OC4CCCCC4)c(C(F)(F)F)c3)n2)cc1` [Example 45] was 1.6 nM; that for `O=C(O)CCNCc1ccc(-c2noc(-c3ccc(-c4ccccc4)cc3)n2)cc1` [Example 48] was 3 nM.
In turn, `CC(C)Oc1ccc(-c2nc(-c3ccc(CNCCC(=O)O)cc3)no2)cc1C(F)(F)F` [Example 49] gave an EC50 of 0.6 nM.
With `O=C(O)CCNCc1ccc(-c2noc(-c3ccc(-c4ccccn4)cc3)n2)cc1` [Example 50], the EC50 is 42 nM.
In turn, `Cc1cc(-c2ccccc2)ccc1-c1nc(-c2ccc(CNCCC(=O)O)cc2)no1` [Example 55] registered an EC50 of 34 nM.
With `O=C(O)CCNCc1ccc(-c2noc(-c3ccc(-c4ccc(C(F)(F)F)cc4)cc3)n2)cc1` [Example 57], the EC50 is 69 nM.
The compound `Cc1cc(-c2ccccc2F)ccc1-c1nc(-c2ccc(CNCCC(=O)O)cc2)no1` [Example 58] had an EC50 of 56 nM.
With `O=C(O)CCNCc1ccc(-c2noc(-c3ccc(-c4ccccc4C(F)(F)F)cc3)n2)cc1` [Example 62], the midpoint of the response, the EC50, lay at 0.4 nM.
Under `O=C(O)CCNCc1ccc(-c2noc(-c3ccc(-c4ccccc4F)cc3)n2)cc1` [Example 67] stands 0.8 nM.
As for `O=C(O)CCNCc1ccc(-c2noc(-c3ccc(-c4cccc(F)c4)cc3)n2)cc1` [Example 68], a half-maximal effect (EC50) was put at 5.5 nM.
The value for `O=C(O)CCNCc1ccc(-c2noc(-c3ccc(-c4ccc(F)cc4)cc3)n2)cc1` [Example 69] was 14 nM; that for `Cc1cc(-c2nc(-c3ccc(CNCCC(=O)O)cc3)no2)ccc1-c1cccc(F)c1` [Example 74] was 0.12 nM; that for `Cc1cc(-c2nc(-c3ccc(CNCCC(=O)O)cc3)no2)ccc1-c1ccc(F)cc1` [Example 75] was 0.34 nM.
Regarding `Cc1cc(-c2nc(-c3ccc(CNCCC(=O)O)cc3)no2)ccc1-c1cccc(C(F)(F)F)c1` [Example 76], the response was half-maximal at 0.35 nM (EC50).
Compound `Cc1cc(-c2nc(-c3ccc(CNCCC(=O)O)cc3)no2)ccc1-c1ccc(C(F)(F)F)cc1` [Example 77] displayed an EC50 of 13 nM.
For `CC(C)Sc1ccc(-c2nc(-c3ccc(CNCCC(=O)O)cc3)no2)cc1` [Example 83], a half-maximal effect (EC50) was put at 11 nM.
The value for `Cc1cc(-c2nc(-c3ccc(CNCCC(=O)O)cc3)no2)ccc1-c1ccccc1C(F)(F)F` [Example 86] was 0.31 nM; that for `N#Cc1ccccc1-c1ccc(-c2nc(-c3ccc(CNCCC(=O)O)cc3)no2)c(F)c1` [Example 88] was 10 nM.
`N#Cc1cc(-c2nc(-c3ccc(CNCCC(=O)O)cc3)no2)ccc1-c1ccccc1F` [Example 89] came in with an EC50 of 0.17 nM.
On to `Cc1cc(-c2nc(-c3ccc(CNCCC(=O)O)cc3)no2)ccc1C1CCCC1` [Example 91], for which the EC50 stood at 0.25 nM.
The value for `Cc1cc(-c2nc(-c3ccc(CNCCC(=O)O)cc3)no2)ccc1C1CCCCC1` [Example 92] was 0.2 nM.
Under `O=C(O)CCNCc1ccc(-c2noc(-c3ccc(-c4ccccc4)cn3)n2)cc1` [Example 95] stands 25 nM; under `O=C(O)CCNCc1ccc(-c2noc(-c3ccc(-c4ccccc4F)c(C(F)(F)F)c3)n2)cc1` [Example 98], 0.37 nM; under `O=C(O)CCNCc1ccc(-c2noc(-c3ccc(-c4ccccc4C(F)(F)F)c(C(F)(F)F)c3)n2)cc1` [Example 99], 1.3 nM.
In turn, `O=C(O)CCNCc1ccc(-c2noc(-c3ccc(-c4ccccc4OC(F)(F)F)c(C(F)(F)F)c3)n2)cc1` [Example 100] yielded an EC50 of 1.7 nM.
On to `CCc1cc(-c2nc(-c3ccc(CNCCC(=O)O)cc3)no2)ccc1-c1ccccc1` [Example 101], for which it took 0.41 nM to reach a half-maximal effect (EC50).
Under `CCc1cc(-c2nc(-c3ccc(CNCCC(=O)O)cc3)no2)ccc1-c1ccccc1C#N` [Example 102] stands 0.41 nM; under `O=C(O)CCNCc1ccc(-c2noc(-c3ccc(/C=C/C(F)(F)F)cc3)n2)cc1` [Example 103], 3.9 nM; under `CCc1cc(-c2nc(-c3ccc(CNCCC(=O)O)cc3)no2)ccc1-c1ccccc1F` [Example 108], 0.29 nM.
With `Cc1ccccc1-c1ccc(-c2nc(-c3ccc(CNCCC(=O)O)cc3)no2)cc1C` [Example 110], the EC50 was 0.35 nM.
`Cc1cc(-c2nc(-c3ccc(CNCCC(=O)O)cc3)no2)ccc1-c1ccccc1Cl` [Example 111] registered an EC50 of 0.17 nM.
The value for `Cc1cc(-c2nc(-c3ccc(CNCCC(=O)O)cc3)no2)ccc1-c1cccs1` [Example 112] was 0.34 nM; that for `Cc1cc(-c2nc(-c3ccc(CNCCC(=O)O)cc3)no2)ccc1-c1ccsc1` [Example 113] was 0.07 nM; that for `Cc1cc(-c2nc(-c3ccc(CNCCC(=O)O)cc3)no2)ccc1-c1ccccc1OC(F)(F)F` [Example 114] was 0.19 nM.
As for `Cc1cc(-c2nc(-c3ccc(CNCCC(=O)O)cc3)no2)ccc1-c1cscc1C` [Example 115], the EC50 was 0.04 nM.
On to `Cc1cc(-c2nc(-c3ccc(CNCCC(=O)O)cc3)no2)ccc1-c1ccco1` [Example 116], for which the 50% effective concentration (EC50) turned out to be 1.5 nM.
Turning to `Cc1cc(-c2nc(-c3ccc(CNCCC(=O)O)cc3)no2)ccc1-c1ccccc1C(C)C` [Example 118], a half-maximal effect (EC50) was put at 0.45 nM.
